Assays:
Test in all cases: relative viability (nuclei count vs DMSO), 5 days (fraction); higher = more cells survive
[1] = compound: C1/C(=C\C2=CC=CS2)/C(=O)/C(=C/C3=CC=CS3)/C1 + CC(=O)Nc1cccc(-n2c(=O)n(C3CC3)c(=O)c3c(Nc4ccc(I)cc4F)n(C)c(=O)c(C)c32)c1 [Trametinib] (partner 0.02 µM)
How it was run: (§1)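 Lung cancer cell lines in 1536-well plates were dosed by pin tool the day after seeding, either with one drug alone or with a fixed anchor-drug dose plus five library-drug doses (not always all listed) in √10 steps. After 5 days, cells were fixed and their nuclei stained in one step (final 0.05% Triton X-100, 1% formaldehyde, 1 ug/ml Hoechst), then counted on 4× images. Relative viability is the nuclei count in treated wells divided by that in vehicle wells. Values are medians of duplicate plates.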

Lestaurtinib + Foretinib = compound: C[C@]12O[C@H](C[C@]1(O)CO)n1c3ccccc3c3c4c(c5c6ccccc6n2c5c31)CNC4=O [Lestaurtinib] + COc1cc2c(Oc3ccc(NC(=O)C4(C(=O)Nc5ccc(F)cc5)CC4)cc3F)ccnc2cc1OCCCN1CCOCC1 [Foretinib] (partner 0.25 µM)
How it was run: as §1

[2] = compound: C1/C(=C\C2=CC=CS2)/C(=O)/C(=C/C3=CC=CS3)/C1 + Cc1cc(Nc2cc(N3CCN(C)CC3)nc(Sc3ccc(NC(=O)C4CC4)cc3)n2)n[nH]1 [Tozasertib] (partner 0.1 µM)
How it was run: as §1

[3] = compound: C1/C(=C\C2=CC=CS2)/C(=O)/C(=C/C3=CC=CS3)/C1 + COc1cc2c(Oc3ccc(NC(=O)C4(C(=O)Nc5ccc(F)cc5)CC4)cc3F)ccnc2cc1OCCCN1CCOCC1 [Foretinib] (partner 0.25 µM)
How it was run: as §1

NCI-H2087
relative viability ([1]; first compound 0.2 µM): 0.201
relative viability ([1]; first compound 0.6325 µM): 0.17
relative viability ([1]; first compound 2 µM): 0.18
relative viability ([1]; first compound 6.325 µM): 0.157
relative viability ([1]; first compound 20 µM): 0.294
relative viability (Lestaurtinib + Foretinib; first compound 0.005 µM): 1.13
relative viability (Lestaurtinib + Foretinib; first compound 0.01581 µM): 1.31
relative viability (Lestaurtinib + Foretinib; first compound 0.05 µM): 0.848
relative viability (Lestaurtinib + Foretinib; first compound 0.1581 µM): 0.703
relative viability (Lestaurtinib + Foretinib; first compound 0.5 µM): 0.266
relative viability ([2]; first compound 0.2 µM): 0.404
relative viability ([2]; first compound 0.6325 µM): 0.257
relative viability ([2]; first compound 2 µM): 0.257
relative viability ([2]; first compound 6.325 µM): 0.201
relative viability ([2]; first compound 20 µM): 0.225
relative viability ([3]; first compound 0.2 µM): 1.26
relative viability ([3]; first compound 0.6325 µM): 1.28
relative viability ([3]; first compound 2 µM): 1.15
relative viability ([3]; first compound 6.325 µM): 1.17
relative viability ([3]; first compound 20 µM): 1.13

LU99A
relative viability ([1]; first compound 0.2 µM): 0.626
relative viability ([1]; first compound 0.6325 µM): 0.558
relative viability ([1]; first compound 2 µM): 0.555
relative viability ([1]; first compound 6.325 µM): 0.495
relative viability ([1]; first compound 20 µM): 0.497
relative viability (Lestaurtinib + Foretinib; first compound 0.005 µM): 0.733
relative viability (Lestaurtinib + Foretinib; first compound 0.01581 µM): 0.73
relative viability (Lestaurtinib + Foretinib; first compound 0.05 µM): 0.575
relative viability (Lestaurtinib + Foretinib; first compound 0.1581 µM): 0.469
relative viability (Lestaurtinib + Foretinib; first compound 0.5 µM): 0.247
relative viability ([2]; first compound 0.2 µM): 0.287
relative viability ([2]; first compound 0.6325 µM): 0.284
relative viability ([2]; first compound 2 µM): 0.266
relative viability ([2]; first compound 6.325 µM): 0.267
relative viability ([2]; first compound 20 µM): 0.301
relative viability ([3]; first compound 0.2 µM): 0.794
relative viability ([3]; first compound 0.6325 µM): 0.853
relative viability ([3]; first compound 2 µM): 1.01
relative viability ([3]; first compound 6.325 µM): 0.753
relative viability ([3]; first compound 20 µM): 0.89

BEN
relative viability ([1]; first compound 0.2 µM): 1.01
relative viability ([1]; first compound 0.6325 µM): 1.11
relative viability ([1]; first compound 2 µM): 1.04
relative viability ([1]; first compound 6.325 µM): 1.05
relative viability ([1]; first compound 20 µM): 0.977
relative viability (Lestaurtinib + Foretinib; first compound 0.005 µM): 0.728
relative viability (Lestaurtinib + Foretinib; first compound 0.01581 µM): 0.803
relative viability (Lestaurtinib + Foretinib; first compound 0.05 µM): 0.478
relative viability (Lestaurtinib + Foretinib; first compound 0.1581 µM): 0.559
relative viability (Lestaurtinib + Foretinib; first compound 0.5 µM): 0.224
relative viability ([2]; first compound 0.2 µM): 0.474
relative viability ([2]; first compound 0.6325 µM): 0.506
relative viability ([2]; first compound 2 µM): 0.506
relative viability ([2]; first compound 6.325 µM): 0.52
relative viability ([2]; first compound 20 µM): 0.6
relative viability ([3]; first compound 0.2 µM): 0.7
relative viability ([3]; first compound 0.6325 µM): 0.646
relative viability ([3]; first compound 2 µM): 0.78
relative viability ([3]; first compound 6.325 µM): 0.745
relative viability ([3]; first compound 20 µM): 0.655

SK-LU-1
relative viability ([1]; first compound 0.2 µM): 0.563
relative viability ([1]; first compound 0.6325 µM): 0.503
relative viability ([1]; first compound 2 µM): 0.536
relative viability ([1]; first compound 6.325 µM): 0.411
relative viability ([1]; first compound 20 µM): 0.489
relative viability (Lestaurtinib + Foretinib; first compound 0.005 µM): 0.763
relative viability (Lestaurtinib + Foretinib; first compound 0.01581 µM): 0.707
relative viability (Lestaurtinib + Foretinib; first compound 0.05 µM): 0.4
relative viability (Lestaurtinib + Foretinib; first compound 0.1581 µM): 0.38
relative viability (Lestaurtinib + Foretinib; first compound 0.5 µM): 0.205
relative viability ([2]; first compound 0.2 µM): 0.329
relative viability ([2]; first compound 0.6325 µM): 0.385
relative viability ([2]; first compound 2 µM): 0.419
relative viability ([2]; first compound 6.325 µM): 0.271
relative viability ([2]; first compound 20 µM): 0.36
relative viability ([3]; first compound 0.2 µM): 0.846
relative viability ([3]; first compound 0.6325 µM): 0.85
relative viability ([3]; first compound 2 µM): 0.937
relative viability ([3]; first compound 6.325 µM): 0.795
relative viability ([3]; first compound 20 µM): 0.831

NCI-H1975
relative viability ([1]; first compound 0.2 µM): 0.345
relative viability ([1]; first compound 0.6325 µM): 0.326
relative viability ([1]; first compound 2 µM): 0.282
relative viability ([1]; first compound 6.325 µM): 0.321
relative viability ([1]; first compound 20 µM): 0.362
relative viability (Lestaurtinib + Foretinib; first compound 0.005 µM): 1.09
relative viability (Lestaurtinib + Foretinib; first compound 0.01581 µM): 0.99
relative viability (Lestaurtinib + Foretinib; first compound 0.05 µM): 0.927
relative viability (Lestaurtinib + Foretinib; first compound 0.1581 µM): 0.731
relative viability (Lestaurtinib + Foretinib; first compound 0.5 µM): 0.538
relative viability ([2]; first compound 0.2 µM): 0.71
relative viability ([2]; first compound 0.6325 µM): 0.742
relative viability ([2]; first compound 6.325 µM): 0.678
relative viability ([2]; first compound 20 µM): 0.699
relative viability ([3]; first compound 0.2 µM): 0.971
relative viability ([3]; first compound 0.6325 µM): 0.979
relative viability ([3]; first compound 6.325 µM): 0.771
relative viability ([3]; first compound 20 µM): 0.895

From the supplement of paper PMC10307832
